Reference: ChEMBL document CHEMBL2203182, “Identification of benzoylisoquinolines as potential anti-Chagas agents” (2012)
Activity calls are given as the source filed them. No cut-off for these calls is given here.

How the values were obtained:
Trypanosoma cruzi [1] = assay: Antitrypanosomal activity against bloodstream trypomastigote form of Trypanosoma cruzi NINOA isolated from infected mouse at the peak of parasitemia assessed as reduction in number of live parasites at 5 to 50 ug/ml after 24 hrs; assay type: functional, organism-based
Trypanosoma cruzi [2] = assay: Antitrypanosomal activity against bloodstream trypomastigote form of Trypanosoma cruzi NINOA isolated from infected mouse at the peak of parasitemia assessed as reduction in number of live parasites at 5 to 50 ug/ml after 24 hrs
Trypanosoma cruzi [3] = assay: Antitrypanosomal activity against bloodstream trypomastigote form of Trypanosoma cruzi NINOA isolated from infected mouse at the peak of parasitemia assessed as reduction in number of live parasites at 161 uM after 24 hrs; assay type: functional; design: scale not given: the % may be the effect or the level left
Trypanosoma cruzi [4] = assay: Antitrypanosomal activity against bloodstream trypomastigote form of Trypanosoma cruzi NINOA isolated from infected mouse at the peak of parasitemia assessed as reduction in number of live parasites at 18 to 36 uM after 24 hrs; assay type: functional, organism-based
Trypanosoma cruzi [5] = assay: Antitrypanosomal activity against bloodstream trypomastigote form of Trypanosoma cruzi NINOA isolated from infected mouse at the peak of parasitemia assessed as reduction in number of live parasites at 178 uM after 24 hrs; assay type: functional, organism-based

O=C(c1ccccc1)c1[nH]c(=O)c2ccccc2c1O
Activity (Trypanosoma cruzi [1]): inactive

O=C(Cn1ccnc1[N+](=O)[O-])NCc1ccccc1
Activity (Trypanosoma cruzi [2]): Active

O=C(c1cccc([N+](=O)[O-])c1)c1[nH]c(=O)c2ccccc2c1O
Activity (Trypanosoma cruzi [3]): 47%

Nc1cccc(C(=O)c2[nH]c(=O)c3ccccc3c2O)c1
Activity (Trypanosoma cruzi [4]): Active | Activity (Trypanosoma cruzi [2]): Active | Activity (Trypanosoma cruzi [5]): inactive
